{
  "source": "patent US20100137136A1",
  "about": "“HERBICIDE/SAFENER COMBINATION” (BAYER CROPSCIENCE AG, priority 2008, published 2010)",
  "format_in_all_cases": "in vivo",
  "key": {"Wheat (Triso) [1]": {"test_system": "Wheat (Triso)", "assay": "Pre-emergence herbicidal effect and safener effect, wheat", "settings": "for % Reduction: reduction of effect by safener", "from_the_text": "(§1) Seeds or rhizome pieces of mono- and dicotyledonous weed plants and crop plants were planted in peat pots in sandy loam and covered with earth. The herbicide/safener active ingredient combinations according to the invention, formulated as water-soluble powders or suspensions, and, in parallel experiments, the correspondingly formulated individual active ingredients were then applied to the surface of the covering earth at an application rate of 600 to 800 l of water/ha (converted) in a variety of dosages."}, "Corn (Aventura) [2]": {"test_system": "Corn (Aventura)", "assay": "Post-emergence herbicidal effect and safener effect, corn", "settings": "for % Reduction: reduction of effect by safener", "description": "(§2) Seeds or rhizome pieces of mono- and dicotyledonous harmful plants and of crop plants are planted in peat pots in sandy loam, covered with earth and grown in a greenhouse under good growth conditions. Alternatively to this, harmful plants occurring in the paddy rice cultivation are cultivated in pots in which water stands up to 2 cm above the soil surface. 10 to 20 days after sowing, the test plants are treated in the one to three-leaf stage. The herbicide/safener active ingredient combinations according to the invention, formulated as water-soluble powders or suspensions, and, in parallel experiments, the correspondingly formulated individual active ingredients are sprayed onto the green plant parts in various dosages using an application rate of 300 l of water/ha (converted) and, after the test plants have remained in the greenhouse under optimum growth conditions for 2-3 weeks, the effect of the preparations is scored visually in comparison with untreated controls. In the case of rice or in the case of harmful plants which occur in the rice cultivation, the active ingredients are also placed directly into the irrigation water (application analogous to the so-called granules application) or sprayed onto plants and into the irrigation water."}, "Wheat (Triso) [3]": {"test_system": "Wheat (Triso)", "assay": "Post-emergence herbicidal effect and safener effect, wheat", "settings": "for % effect (with safener) / % Reduction: herbicide I-2 20 g a.i./ha + safener 50 g a.i./ha; for % Reduction: reduction of effect by safener", "description": "as §2"}, "Rice (Ballila)": {"test_system": "Rice (Ballila)", "assay": "Post-emergence herbicidal effect and safener effect, rice", "settings": "for % effect (with safener) / % Reduction: herbicide I-2 80 g a.i./ha + safener 200 g a.i./ha; for % Reduction: reduction of effect by safener", "description": "as §2"}, "Corn (Aventura) [4]": {"test_system": "Corn (Aventura)", "assay": "Pre-emergence herbicidal effect and safener effect, corn", "settings": "for % effect (with safener) / % Reduction: herbicide I-2 80 g a.i./ha + safener 200 g a.i./ha; for % Reduction: reduction of effect by safener", "from_the_text": "as §1"}, "Barley (Adonis)": {"test_system": "Barley (Adonis)", "assay": "Post-emergence herbicidal effect and safener effect, barley", "settings": "herbicide 20 g a.i./ha, no safener, scored visually vs untreated controls", "description": "as §2"}, "[5]": {"settings": "herbicide I-2 20 g a.i./ha + safener 50 g a.i./ha"}, "[6]": {"settings": "herbicide I-2 20 g a.i./ha alone"}, "[7]": {"settings": "herbicide I-2 80 g a.i./ha alone"}, "[8]": {"settings": "herbicide I-2 80 g a.i./ha + safener 200 g a.i./ha"}},
  "data": [
    {"smiles": "FC(F)(F)C(=NOCC1OCCO1)c1ccc(Cl)cc1", "note": "[Compound S11-2, 1-(4-chlorophenyl)-2,2,2-trifluoro-1-ethanone O-(1,3-dioxolan-2-ylmethyl)oxim]", "values": [
      {"measurement": "% effect (with safener)", "setting": "Wheat (Triso) [1]; [5]", "value": 20, "unit": "%"},
      {"measurement": "% Reduction", "setting": "Wheat (Triso) [1]; [5]", "value": 33, "unit": "%"}
    ]},
    {"smiles": "CC1(C)OC(c2ccco2)CN1C(=O)C(Cl)Cl", "note": "(racemic) [Compound S3-10, (RS)-3-dichloroacetyl-5-(2-furyl)-2,2-dimethyloxazolidine]", "values": [
      {"measurement": "% effect (with safener)", "setting": "Corn (Aventura) [2]; [5]", "value": 20, "unit": "%"},
      {"measurement": "% Reduction", "setting": "Corn (Aventura) [2]; [5]", "value": 50, "unit": "%"},
      {"measurement": "% effect (with safener)", "setting": "Wheat (Triso) [1]; [5]", "value": 10, "unit": "%"},
      {"measurement": "% Reduction", "setting": "Wheat (Triso) [1]; [5]", "value": 67, "unit": "%"}
    ]},
    {"smiles": "COC(=O)c1nc(C2CC2)cc(N)c1Cl", "note": "[Compound I-2, methyl 4-amino-3-chloro-6-cyclopropyl-2-pyridinecarboxylate]", "values": [
      {"measurement": "% effect (without safener)", "setting": "Wheat (Triso) [3]; [6]", "value": 20, "unit": "%"},
      {"measurement": "% effect (without safener)", "setting": "Corn (Aventura) [2]; [6]", "value": 40, "unit": "%"},
      {"measurement": "% effect (without safener)", "setting": "Corn (Aventura) [2]; [7]", "value": 40, "unit": "%"},
      {"measurement": "% effect (without safener)", "setting": "Rice (Ballila); [7]", "value": 30, "unit": "%"},
      {"measurement": "% effect (without safener)", "setting": "Wheat (Triso) [1]; [6]", "value": 30, "unit": "%"},
      {"measurement": "% effect (without safener)", "setting": "Wheat (Triso) [1]; [7]", "value": 30, "unit": "%"},
      {"measurement": "% effect (without safener)", "setting": "Corn (Aventura) [4]; [7]", "value": 35, "unit": "%"},
      {"measurement": "% effect (without safener)", "setting": "Barley (Adonis)", "value": 20, "unit": "%"}
    ]},
    {"smiles": "CCOC(=O)C1=NOC(c2ccccc2)(c2ccccc2)C1", "note": "[Isoxadifen-ethyl, ethyl 5,5-diphenyl-2-isoxazoline-carboxylate]", "values": [
      {"measurement": "% effect (with safener)", "setting": "Wheat (Triso) [3]", "value": 0, "unit": "%"},
      {"measurement": "% Reduction", "setting": "Wheat (Triso) [3]", "value": 100, "unit": "%"},
      {"measurement": "% effect (with safener)", "setting": "Corn (Aventura) [2]; [8]", "value": 20, "unit": "%"},
      {"measurement": "% Reduction", "setting": "Corn (Aventura) [2]; [8]", "value": 50, "unit": "%"},
      {"measurement": "% effect (with safener)", "setting": "Rice (Ballila)", "value": 20, "unit": "%"},
      {"measurement": "% Reduction", "setting": "Rice (Ballila)", "value": 33, "unit": "%"},
      {"measurement": "% effect (with safener)", "setting": "Wheat (Triso) [1]; [5]", "value": 10, "unit": "%"},
      {"measurement": "% Reduction", "setting": "Wheat (Triso) [1]; [5]", "value": 67, "unit": "%"},
      {"measurement": "% effect (with safener)", "setting": "Corn (Aventura) [4]", "value": 25, "unit": "%"},
      {"measurement": "% Reduction", "setting": "Corn (Aventura) [4]", "value": 29, "unit": "%"}
    ]},
    {"smiles": "CCCCCC(C)OC(=O)COc1ccc(Cl)c2cccnc12", "note": "(stereo not drawn) [Compound S2-1, 1-methylhexyl(5-chloro-8-quinolinoxy)acetate]", "values": [
      {"measurement": "% effect (with safener)", "setting": "Corn (Aventura) [2]; [5]", "value": 20, "unit": "%"},
      {"measurement": "% Reduction", "setting": "Corn (Aventura) [2]; [5]", "value": 50, "unit": "%"},
      {"measurement": "% effect (with safener)", "setting": "Rice (Ballila)", "value": 10, "unit": "%"},
      {"measurement": "% Reduction", "setting": "Rice (Ballila)", "value": 67, "unit": "%"},
      {"measurement": "% effect (with safener)", "setting": "Wheat (Triso) [1]; [8]", "value": 20, "unit": "%"},
      {"measurement": "% Reduction", "setting": "Wheat (Triso) [1]; [8]", "value": 33, "unit": "%"}
    ]},
    {"smiles": "CC1COc2ccccc2N1C(=O)C(Cl)Cl", "note": "(stereo not drawn) [Compound S3-4, 4-dichloroacetyl-3,4-dihydro-3-methyl-2H-1,4-benzoxazine]", "values": [
      {"measurement": "% effect (with safener)", "setting": "Corn (Aventura) [2]; [8]", "value": 10, "unit": "%"},
      {"measurement": "% Reduction", "setting": "Corn (Aventura) [2]; [8]", "value": 75, "unit": "%"}
    ]},
    {"smiles": "CCOC(=O)C1=NN(c2ccc(Cl)cc2Cl)C(C)(C(=O)OCC)C1", "note": "(stereo not drawn) [Mefenpyr-diethyl, ethyl 1-(2,4-dichlorophenyl)-5-(ethoxycarbonyl)-5-methyl-2-pyrazoline-3-carboxylate]", "values": [
      {"measurement": "% effect (with safener)", "setting": "Wheat (Triso) [3]", "value": 0, "unit": "%"},
      {"measurement": "% Reduction", "setting": "Wheat (Triso) [3]", "value": 100, "unit": "%"},
      {"measurement": "% effect (with safener)", "setting": "Corn (Aventura) [2]; [5]", "value": 20, "unit": "%"},
      {"measurement": "% Reduction", "setting": "Corn (Aventura) [2]; [5]", "value": 50, "unit": "%"},
      {"measurement": "% effect (with safener)", "setting": "Wheat (Triso) [1]; [5]", "value": 20, "unit": "%"},
      {"measurement": "% Reduction", "setting": "Wheat (Triso) [1]; [5]", "value": 33, "unit": "%"},
      {"measurement": "% effect (with safener)", "setting": "Corn (Aventura) [4]", "value": 20, "unit": "%"},
      {"measurement": "% Reduction", "setting": "Corn (Aventura) [4]", "value": 43, "unit": "%"}
    ]},
    {"smiles": "O=C(O)c1nc(C(Cl)(Cl)Cl)n(-c2ccc(Cl)cc2Cl)n1", "note": "[Fenchlorazole]", "values": [
      {"measurement": "% effect (with safener)", "setting": "Wheat (Triso) [1]; [5]", "value": 10, "unit": "%"},
      {"measurement": "% Reduction", "setting": "Wheat (Triso) [1]; [5]", "value": 67, "unit": "%"}
    ]}
  ]
}
